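How tested: cells in 96-well plates exposed to compound for 48 hours at five concentrations. At the GI50, growth is halved.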 Active and inactive are the calls of the source. No stated cut-off is given here; in the data, active = GI50 up to about 1.1 µM and inactive = higher.
Tests used:
Experiment in all cases: NCI tumour cell line growth inhibition, 48 h
[1] = test system: HT-29
[2] = test system: NCI-H226
[3] = test system: SK-MEL-2
[4] = test system: HOP-62
[5] = test system: T47D
[6] = test system: ACHN
[7] = test system: NCI-H460
[8] = test system: RXF 393
[9] = test system: MDA-MB-231
[10] = test system: TK-10
[11] = test system: SNB-75
[12] = test system: MOLT-4
[13] = test system: HCC 2998
[14] = test system: OVCAR-4
[15] = test system: LOX IMVI
[16] = test system: OVCAR-5
[17] = test system: DU-145
[18] = test system: UACC-62
[19] = test system: SF-268
[20] = test system: SK-MEL-5
[21] = test system: U-251
[22] = test system: SK-OV-3
[23] = test system: A549
[24] = test system: A498
[25] = test system: SF-539
[26] = test system: PC-3
[27] = test system: 786-0
[28] = test system: MDA-N
[29] = test system: SW-620
[30] = test system: HCT-15
[31] = test system: UACC-257
[32] = test system: CAKI-1
[33] = test system: OVCAR-3
[34] = test system: KM12
[35] = test system: Malme-3M
[36] = test system: Hs-578T
[37] = test system: NCI-H522
[38] = test system: K562
[39] = test system: CCRF-CEM
[40] = test system: HOP-92
[41] = test system: SF-295
[42] = test system: OVCAR-8
[43] = test system: SNB-19
[44] = test system: MDA-MB-435
[45] = test system: SK-MEL-28
[46] = test system: IGROV-1
[47] = test system: MCF7
[48] = test system: HCT-116
[49] = test system: EKVX
[50] = test system: UO-31
[51] = test system: SN12C
[52] = test system: COLO 205
[53] = test system: NCI-H23
[54] = test system: M14
[55] = test system: SR
[56] = test system: NCI/ADR-RES
[57] = test system: BT-549
[58] = test system: RPMI-8226
[59] = test system: HL-60

In the case of `COC(=O)C1CCCCCCCCCCC12SCCCS2` (stereo unspecified), the GI50 [1] is reported as 32.8 µM (inactive), the GI50 [2] is reported as 18.6 µM (inactive) and the GI50 [3] is reported as 18.6 µM (inactive). For the same compound, the GI50 [4] was 21.2 µM (inactive), the GI50 [5] was 35.7 µM (inactive) and the GI50 [6] was 19 µM (inactive). For the same compound, the GI50 [7] was 37.2 µM (inactive), the GI50 [8] was 19 µM (inactive) and the GI50 [9] was 21.7 µM (inactive). For the same compound, the GI50 [10] was 20.1 µM (inactive), the GI50 [11] was 19.1 µM (inactive) and the GI50 [12] was 15.8 µM (inactive). The GI50 [13] was 20.9 µM (inactive), the GI50 [14] was 16.5 µM (inactive) and the GI50 [15] was 18.3 µM (inactive). The GI50 [16] was 16.8 µM (inactive), the GI50 [17] was 16.7 µM (inactive) and the GI50 [18] was 25.6 µM (inactive). For the same compound, the GI50 [19] was 23 µM (inactive), the GI50 [20] was 18.7 µM (inactive) and the GI50 [21] was 17.3 µM (inactive). For the same compound, the GI50 [22] was 49.5 µM (inactive), the GI50 [23] was 17.4 µM (inactive) and the GI50 [24] was 29.5 µM (inactive). The GI50 [25] was 25.3 µM (inactive), the GI50 [26] was 17.5 µM (inactive) and the GI50 [27] was 14.6 µM (inactive). The GI50 [28] was 30.8 µM (inactive), the GI50 [29] was 27.2 µM (inactive) and the GI50 [30] was 26.7 µM. The GI50 [31] was 17.5 µM (inactive), the GI50 [32] was 26.3 µM (inactive) and the GI50 [33] was 18.4 µM (inactive). For the same compound, the GI50 [34] was 18.1 µM (inactive), the GI50 [35] was 20.3 µM (inactive) and the GI50 [36] was 30.4 µM (inactive). The GI50 [37] was 17.2 µM (inactive), the GI50 [38] was 24.5 µM (inactive) and the GI50 [39] was 23 µM (inactive). The GI50 [40] was 19.4 µM (inactive), the GI50 [41] was 16.5 µM (inactive) and the GI50 [42] was 23.4 µM (inactive). The GI50 [43] was 18.2 µM (inactive), the GI50 [44] was 16.4 µM (inactive) and the GI50 [45] was 18.4 µM (inactive). The GI50 [46] was 17.7 µM (inactive), the GI50 [47] was 43.9 µM (inactive) and the GI50 [48] was 16.3 µM (inactive). For the same compound, the GI50 [49] was 19.4 µM (inactive), the GI50 [50] was 18.9 µM (inactive) and the GI50 [51] was 16.9 µM (inactive). The GI50 [52] was 18.6 µM (inactive), the GI50 [53] was 34.8 µM (inactive) and the GI50 [54] was 15.5 µM (inactive). For the same compound, the GI50 [55] was 11.5 µM (inactive) and the GI50 [56] was 20.7 µM (inactive).
With `NC1CCC[C@@H](O)[C@H]1O` (stereo partly specified) the GI50 [2] was > 100 µM (inactive), the GI50 [25] was > 100 µM (inactive) and the GI50 [35] was > 100 µM (inactive). The GI50 [37] was > 100 µM (inactive), the GI50 [57] was > 100 µM (inactive) and the GI50 [39] was > 100 µM (inactive). For the same compound, the GI50 [43] was > 100 µM (inactive), the GI50 [46] was > 100 µM (inactive) and the GI50 [50] was 76.7 µM (inactive). The GI50 [52] was > 100 µM (inactive).
`CC(=O)OC12c3ccccc3-c3ccccc3C1C1C(=O)N(C)C(=O)C12Cl` (stereo unspecified) was tested, and the GI50 [1] was > 10 µM (inactive), the GI50 [2] was > 10 µM (inactive) and the GI50 [3] was > 10 µM (inactive). The GI50 [4] was > 10 µM (inactive), the GI50 [5] was > 10 µM (inactive) and the GI50 [6] was > 10 µM (inactive). For the same compound, the GI50 [7] was > 10 µM (inactive), the GI50 [8] was > 10 µM (inactive) and the GI50 [9] was > 10 µM (inactive). The GI50 [10] was > 10 µM (inactive), the GI50 [11] was > 10 µM (inactive) and the GI50 [12] was > 10 µM (inactive). The GI50 [13] was > 10 µM (inactive), the GI50 [14] was > 10 µM (inactive) and the GI50 [15] was > 10 µM (inactive). For the same compound, the GI50 [16] was > 10 µM (inactive), the GI50 [17] was > 10 µM (inactive) and the GI50 [19] was > 10 µM (inactive). For the same compound, the GI50 [20] was > 10 µM (inactive), the GI50 [21] was > 10 µM (inactive) and the GI50 [22] was > 10 µM (inactive). The GI50 [24] was > 10 µM (inactive), the GI50 [25] was > 10 µM (inactive) and the GI50 [26] was > 10 µM (inactive). For the same compound, the GI50 [27] was > 10 µM (inactive), the GI50 [28] was > 10 µM (inactive) and the GI50 [29] was > 10 µM (inactive). For the same compound, the GI50 [30] was over 10 µM, the GI50 [58] was > 10 µM (inactive) and the GI50 [31] was > 10 µM (inactive). The GI50 [32] was > 10 µM (inactive), the GI50 [33] was > 10 µM (inactive) and the GI50 [34] was > 10 µM (inactive). For the same compound, the GI50 [35] was > 10 µM (inactive), the GI50 [36] was > 10 µM (inactive) and the GI50 [59] was > 10 µM (inactive). The GI50 [37] was > 10 µM (inactive), the GI50 [38] was > 10 µM (inactive) and the GI50 [39] was > 10 µM (inactive). For the same compound, the GI50 [40] was > 10 µM (inactive), the GI50 [41] was > 10 µM (inactive) and the GI50 [42] was > 10 µM (inactive). For the same compound, the GI50 [43] was > 10 µM (inactive), the GI50 [44] was > 10 µM (inactive) and the GI50 [45] was > 10 µM (inactive). For the same compound, the GI50 [46] was > 10 µM (inactive), the GI50 [47] was > 10 µM (inactive) and the GI50 [49] was > 10 µM (inactive). For the same compound, the GI50 [50] was > 10 µM (inactive), the GI50 [51] was > 10 µM (inactive) and the GI50 [52] was > 10 µM (inactive). For the same compound, the GI50 [53] was > 10 µM (inactive), the GI50 [54] was > 10 µM (inactive) and the GI50 [55] was > 10 µM (inactive). The GI50 [56] was > 10 µM (inactive).
